Source: patent publication US20150320776A1, “METHOD OF INHIBITING HELICOBACTER PYLORI” (priority 2014, published 2015)
Values after ≈ are worked out from the molar mass of the structure shown. Read-outs that look alike come from different tables or passages of the source.

What was measured:
Helicobacter pylori J99 = assay: Paper disc diffusion test, inhibition zone on agar plate; format: cell-based; details: blank disc 8 mm; for zone of inhibition at 4 mg/disc / zone of inhibition at 1 mg/disc: Helicobacter pylori, J99, read-out: inhibition growth diameter; for inhibition zone diameter (FIG. 5): amount per disc not given
Protocol: Helicobacter pylori J99 (HP J99) used in the embodiments of the present invention was purchased from Bioresource Collection and Research Center (BCRC). The cultivating condition is indicated as follows: the bacteria were inoculated onto CDC medium (CDC anaerobe 5% blood agar, BD) and then incubated at 37° C. for 48 to 72 hours. After incubation, the bacteria were further incubated under micro-aerobic condition (5% O2, 10% CO2, 85% N2). For preparation of solutions with the foregoing compound A or compound B, ethanol was used as solvent to prepare various suitable concentrations.
The test on the inhibitory effect of Helicobacter pylori with the compound A or compound B of the present invention was carried out as follows: Helicobacter pylori was first grown on a CDC agar plate containing sheep blood for 48 to 72 hours. The bacterial colony was scraped with a cotton swab or an inoculation loop and subsequently transferred into a normal saline solution (0.9% NaCl). The optical density was then adjusted to 2 Mcfarland (1-4×10^8/ml bacteria) to obtain a solution with Helicobacter pylori. Subsequently, the foregoing compound A or compound B was weighed out to prepare a series of concentrations (from 10 mg/ml to 100 mg/ml) of test solutions (40 μl) and then 40 μl of the solution were transferred onto blank paper discs. After dryness, the discs were separately stuck to a proper site on the agar plate. After incubation under micro-aerobic condition at 37° C. for 48 hours, observation was made if any inhibition zone emerged on the agar plate.
The compounds of the present invention, which were actually tested, included phenoxyacetic acid, 3,4-dihydrobenzoic acid, 3,5-diamino-benzoic acid, 4-aminophenylacetic acid, 4-nitrobenzoic acid, 2,4-dinitrobenzoic acid, 4-(dimethylamino)benzoic acid, 2-methoxyphenylacetic acid, 3-amino-4-methylbenzoic acid, 4-methylthiobenzoic acid, 4-bromphenylacetic acid, 1,4-cyclohexanedicarboxylic acid, phthalic acid, trans-cinnamic acid, 4-ethylbenzoic acid, phenylacetic acid, benzoic acid, 3-phenylpropionic acid, 4-phenylbutyric acid, 3,4-dimethoxybenzyl alcohol (1) and 4-indophenylboronic acid (2). Ethanol (3) and water (4) were used as control.

susceptible H. pylori = details: cited from earlier work; for increase of MIC90: ratio of pH 5.5 to 7.0
H. pylori J99 [1] = assay: Minimal bactericidal concentration (MBC); format: cell-based; details: Helicobacter pylori, kills 99.9% of bacteria of control group, 37° C., 1 to 2 hours
Protocol: Minimal bactericidal concentration (MBC) was determined by incubating test bacteria with different doses of test compounds for a period of time. Subsequently, the solutions underwent serial dilutions and the bacteria were grown on the agar plate by plate coating. At this moment, the concentration of test compound lost its inhibitory ability because of being diluted via serial dilutions and plate coating and it could be seen from the clear bacterial solution if the bacteria were dead. If bacteria growth was inhibited by the concentration of test compound, the bacteria might continue to grow after the abovementioned treatment and appeared in the form of colonies. In an embodiment of the present invention, H. pylori J99 were pre-cultivated for two days and colonies were scraped and suspended in saline solution. The bacterial concentration was then adjusted to 2 McFarland. After addition of suitable concentrations of benzoic acid and phenylacetic acid and incubation at 37° C. for 1 to 2 hours, the bacterial suspension underwent serial dilutions. 100 μl aliquots were taken from each suspension and applied on CDC plates. The plates were incubated under micro-aerobic condition at 37° C. for two days. The number of bacterial colonies was noted down and the concentration of test compound, that is able to kill 99.9% of bacteria of control group, was used as minimal bactericidal concentration.

H. pylori J99 [2] = assay: Minimum inhibition concentration with different pH values; format: cell-based, Helicobacter pylori; details: for MIC90: Helicobacter pylori; for MIC: pH 6.0 to pH 7.0, no change observed

## O=C(O)C1CCC(C(=O)O)CC1 (stereo not drawn) [1,4-cyclohexanedicarboxylic acid]
Helicobacter pylori J99; 4 mg/disc
  zone of inhibition at 4 mg/disc: 12 mm

## COc1ccccc1CC(=O)O [2-methoxyphenylacetic acid]
Helicobacter pylori J99; 4 mg/disc
  zone of inhibition at 4 mg/disc: 16 mm

## CC[C@H]1OC(=O)[C@H](C)[C@@H](O[C@H]2C[C@@](C)(OC)[C@@H](O)[C@H](C)O2)[C@H](C)[C@@H](O[C@@H]2O[C@H](C)C[C@H](N(C)C)[C@H]2O)[C@](C)(O)C[C@@H](C)C(=O)[C@H](C)[C@@H](O)[C@]1(C)O [Erythromycin]
Susceptible H. pylori; pH 5.5
  MIC90: 8 µg/mL (≈ 10.9 µM)
Susceptible H. pylori; pH 6.0
  MIC90: 2 µg/mL (≈ 2.73 µM)
Susceptible H. pylori; pH 7.5
  MIC90: 0.06 µg/mL (≈ 0.0818 µM)

## OB(O)c1ccc(I)cc1 [4-indophenylboronic acid]
Helicobacter pylori J99; 1 mg/disc
  inhibition growth diameter: 35 mm
Helicobacter pylori J99
  inhibition zone diameter (FIG. 5): 35 mm

## Nc1ccc(CC(=O)O)cc1 [4-aminophenylacetic acid]
Helicobacter pylori J99; 4 mg/disc
  zone of inhibition at 4 mg/disc: 12 mm

## Nc1cc(N)cc(C(=O)O)c1 [3,5-diaminobenzoic acid]
Helicobacter pylori J99; 4 mg/disc
  zone of inhibition at 4 mg/disc: 12 mm

## Cc1ncc([N+](=O)[O-])n1CCO [Metronidazole]
Susceptible H. pylori; pH 5.5
  MIC90: 2 µg/mL (≈ 11.7 µM)
Susceptible H. pylori; pH 6.0
  MIC90: 2 µg/mL (≈ 11.7 µM)
Susceptible H. pylori; pH 7.5
  MIC90: 2 µg/mL (≈ 11.7 µM)

## CCc1ccc(C(=O)O)cc1 [4-ethylbenzoic acid]
Helicobacter pylori J99; 1 mg/disc
  zone of inhibition at 1 mg/disc: 30 mm

## CC[C@H]1OC(=O)[C@H](C)[C@@H](O[C@H]2C[C@@](C)(OC)[C@@H](O)[C@H](C)O2)[C@H](C)[C@@H](O[C@@H]2O[C@H](C)C[C@H](N(C)C)[C@H]2O)[C@](C)(OC)C[C@@H](C)C(=O)[C@H](C)[C@@H](O)[C@]1(C)O [Clarithromycin]
Susceptible H. pylori; pH 5.5
  MIC90: 0.25 µg/mL (≈ 0.334 µM)
Susceptible H. pylori; pH 6.0
  MIC90: 0.06 µg/mL (≈ 0.0802 µM)
Susceptible H. pylori; pH 7.5
  MIC90: 0.03 µg/mL (≈ 0.0401 µM)
Susceptible H. pylori
  increase of MIC90: eight

## O=C(O)c1ccccc1 [Benzoic acid]
H. pylori J99 [1]
  MBC: 500 µg/mL (≈ 4090 µM)
H. pylori J99 [2]; J99, pH 6
  MIC90: 0.06 µg/mL (≈ 0.491 µM)
H. pylori J99 [2]; J99, pH 6.5
  MIC90: 0.06 µg/mL (≈ 0.491 µM)
H. pylori J99 [2]; J99, pH 7
  MIC90: 0.06 µg/mL (≈ 0.491 µM)
H. pylori J99 [2]
  MIC: 0.06
Helicobacter pylori J99; 4 mg/disc
  zone of inhibition at 4 mg/disc: 24 mm

## O=C(O)c1ccc([N+](=O)[O-])cc1[N+](=O)[O-] [2,4-dinitrobenzoic acid]
Helicobacter pylori J99; 4 mg/disc
  inhibition growth diameter: 33 mm

## O=C(O)COc1ccccc1 [Phenoxyacetic acid]
Helicobacter pylori J99; 4 mg/disc
  zone of inhibition at 4 mg/disc: 17 mm

## O=C(O)/C=C/c1ccccc1 [Trans-cinnamic acid]
Helicobacter pylori J99; 1 mg/disc
  zone of inhibition at 1 mg/disc: 25 mm

## CN(C)c1ccc(C(=O)O)cc1 [4-(dimethylamino)benzoic acid]
Helicobacter pylori J99; 4 mg/disc
  zone of inhibition at 4 mg/disc: 26 mm

## CC1=C(C(=O)O)N2C(=O)[C@@H](NC(=O)[C@H](N)c3ccccc3)[C@H]2SC1 [Cefalexin]
Susceptible H. pylori; pH 5.5
  MIC90: 32 µg/mL (≈ 92.1 µM)
Susceptible H. pylori; pH 6.0
  MIC90: 16 µg/mL (≈ 46.1 µM)
Susceptible H. pylori; pH 7.5
  MIC90: 2 µg/mL (≈ 5.76 µM)

## CC1(C)S[C@@H]2[C@H](NC(=O)[C@H](N)c3ccccc3)C(=O)N2[C@H]1C(=O)O [Ampicillin]
Susceptible H. pylori; pH 5.5
  MIC90: 0.5 µg/mL (≈ 1.43 µM)
Susceptible H. pylori; pH 6.0
  MIC90: 0.25 µg/mL (≈ 0.715 µM)
Susceptible H. pylori; pH 7.5
  MIC90: 0.06 µg/mL (≈ 0.172 µM)

## O=C(O)CCc1ccccc1 [3-phenylpropionic acid]
Helicobacter pylori J99; 1 mg/disc
  zone of inhibition at 1 mg/disc: 14 mm
Helicobacter pylori J99; 4 mg/disc
  zone of inhibition at 4 mg/disc: 34 mm

## O=C(O)Cc1ccc(Br)cc1 [4-bromphenylacetic acid]
Helicobacter pylori J99; 1 mg/disc
  inhibition growth diameter: 16 mm
Helicobacter pylori J99; 4 mg/disc
  inhibition growth diameter: 35 mm

## O=C([O-])CC(O)(CC(=O)[O-])C(=O)[O-].O=C([O-])CC(O)(CC(=O)[O-])C(=O)[O-].[Bi+3].[K+].[K+].[K+] [Bismuth subcitrate]
Susceptible H. pylori; pH 6.0
  MIC90: 8 µg/mL
Susceptible H. pylori; pH 7.5
  MIC90: 16 µg/mL

## O=C(O)CCCc1ccccc1 [4-phenylbutyric acid]
Helicobacter pylori J99; 4 mg/disc
  zone of inhibition at 4 mg/disc: 28 mm

## Cc1ccc(C(O)=S)cc1 [4-methylthiobenzoic acid]
Helicobacter pylori J99; 1 mg/disc
  zone of inhibition at 1 mg/disc: 18 mm
Helicobacter pylori J99; 4 mg/disc
  zone of inhibition at 4 mg/disc: 40 mm

## O=C(O)Cc1ccccc1 [Phenylacetic acid]
H. pylori J99 [1]
  MBC: 1000 µg/mL (≈ 7340 µM)
H. pylori J99 [2]; J99, pH 6.5, read-out: MIC90
  MIC90: 0.125 µg/mL (≈ 0.918 µM)
H. pylori J99 [2]; J99, pH 7
  MIC90: 0.125 µg/mL (≈ 0.918 µM)
H. pylori J99 [2]; J99, pH 6.0, read-out: MIC90
  MIC90: 0.125 µg/mL (≈ 0.918 µM)
H. pylori J99 [2]
  MIC: 0.125
Helicobacter pylori J99; 4 mg/disc
  zone of inhibition at 4 mg/disc: 22 mm

## CC1(C)S[C@@H]2[C@H](NC(=O)[C@H](N)c3ccc(O)cc3)C(=O)N2[C@H]1C(=O)O [amoxicillin]
Susceptible H. pylori
  increase of MIC90: eight

## O=C(O)c1ccc([N+](=O)[O-])cc1 [4-nitrobenzoic acid]
Helicobacter pylori J99; 1 mg/disc
  zone of inhibition at 1 mg/disc: 70 mm

## COc1ccc(CO)cc1OC [3,4-dimethoxybenzyl alcohol]
Helicobacter pylori J99; 4 mg/disc
  zone of inhibition at 4 mg/disc: 20 mm
Helicobacter pylori J99
  inhibition zone diameter (FIG. 5): 20 mm

## Cc1ccc(C(=O)O)cc1N [3-amino-4-methylbenzoic acid]
Helicobacter pylori J99; 4 mg/disc
  zone of inhibition at 4 mg/disc: 14 mm

## O=C(O)c1ccccc1C(=O)O [phthalic acid]
Helicobacter pylori J99; 4 mg/disc
  zone of inhibition at 4 mg/disc: 12 mm

## Penicillin
Susceptible H. pylori; pH 5.5
  MIC90: 0.5 µg/mL
Susceptible H. pylori; pH 6.0
  MIC90: 0.5 µg/mL
Susceptible H. pylori; pH 7.5
  MIC90: 0.03 µg/mL

## O=C(O)c1cn(C2CC2)c2cc(N3CCNCC3)c(F)cc2c1=O [Ciprofloxacin]
Susceptible H. pylori; pH 5.5
  MIC90: 2 µg/mL (≈ 6.04 µM)
Susceptible H. pylori; pH 6.0
  MIC90: 0.5 µg/mL (≈ 1.51 µM)
Susceptible H. pylori; pH 7.5
  MIC90: 0.12 µg/mL (≈ 0.362 µM)
